This note sets out measurements from publication PMC3914206.

The target in assay [1] is T1, panel of 442 kinases (Homo sapiens, UniProt Q13873).
T1 construct: purchased KINOMEscan
T1 sequence (Q13873 27-1038): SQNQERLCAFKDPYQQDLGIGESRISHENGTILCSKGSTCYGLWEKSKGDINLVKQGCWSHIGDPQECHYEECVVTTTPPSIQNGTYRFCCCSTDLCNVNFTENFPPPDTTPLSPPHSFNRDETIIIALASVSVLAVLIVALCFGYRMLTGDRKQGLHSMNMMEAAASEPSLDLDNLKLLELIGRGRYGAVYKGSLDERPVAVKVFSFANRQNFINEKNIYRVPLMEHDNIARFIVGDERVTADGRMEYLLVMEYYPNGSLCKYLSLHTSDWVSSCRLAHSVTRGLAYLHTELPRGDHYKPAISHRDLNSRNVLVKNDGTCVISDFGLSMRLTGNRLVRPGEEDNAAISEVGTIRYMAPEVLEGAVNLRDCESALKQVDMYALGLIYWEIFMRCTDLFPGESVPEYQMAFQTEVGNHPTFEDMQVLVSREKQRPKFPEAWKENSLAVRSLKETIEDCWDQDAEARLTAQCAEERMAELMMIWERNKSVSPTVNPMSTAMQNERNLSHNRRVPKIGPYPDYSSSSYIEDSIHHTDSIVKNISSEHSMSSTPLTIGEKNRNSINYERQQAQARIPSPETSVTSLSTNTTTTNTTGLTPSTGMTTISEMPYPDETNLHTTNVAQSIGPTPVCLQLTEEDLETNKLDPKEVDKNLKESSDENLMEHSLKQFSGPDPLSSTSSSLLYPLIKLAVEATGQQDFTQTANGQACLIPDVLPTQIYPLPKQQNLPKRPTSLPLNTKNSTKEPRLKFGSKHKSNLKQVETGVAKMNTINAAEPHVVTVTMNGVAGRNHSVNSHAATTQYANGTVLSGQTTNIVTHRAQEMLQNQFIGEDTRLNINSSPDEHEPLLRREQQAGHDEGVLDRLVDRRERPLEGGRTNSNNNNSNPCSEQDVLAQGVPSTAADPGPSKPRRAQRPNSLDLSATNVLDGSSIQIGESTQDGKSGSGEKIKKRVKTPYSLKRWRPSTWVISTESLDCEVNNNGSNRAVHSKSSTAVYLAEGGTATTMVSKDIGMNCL
It counts as binding. The note with it: Compound Concentration 10 µM. The source says: (§1) We assessed the selectivity of members of this scaffold using the KINOMEscan methodology across a near comprehensive panel of 442 kinases [[18,27]].

The target of assay [2] is T2, panel of 442 kinases (Homo sapiens, UniProt Q9Y4K4).
T2 construct: purchased KINOMEscan
It is filed as binding. The note with it: Compound Concentration 10 µM.
Excerpt: as §1

T2 sequence (Q9Y4K4 whole entry): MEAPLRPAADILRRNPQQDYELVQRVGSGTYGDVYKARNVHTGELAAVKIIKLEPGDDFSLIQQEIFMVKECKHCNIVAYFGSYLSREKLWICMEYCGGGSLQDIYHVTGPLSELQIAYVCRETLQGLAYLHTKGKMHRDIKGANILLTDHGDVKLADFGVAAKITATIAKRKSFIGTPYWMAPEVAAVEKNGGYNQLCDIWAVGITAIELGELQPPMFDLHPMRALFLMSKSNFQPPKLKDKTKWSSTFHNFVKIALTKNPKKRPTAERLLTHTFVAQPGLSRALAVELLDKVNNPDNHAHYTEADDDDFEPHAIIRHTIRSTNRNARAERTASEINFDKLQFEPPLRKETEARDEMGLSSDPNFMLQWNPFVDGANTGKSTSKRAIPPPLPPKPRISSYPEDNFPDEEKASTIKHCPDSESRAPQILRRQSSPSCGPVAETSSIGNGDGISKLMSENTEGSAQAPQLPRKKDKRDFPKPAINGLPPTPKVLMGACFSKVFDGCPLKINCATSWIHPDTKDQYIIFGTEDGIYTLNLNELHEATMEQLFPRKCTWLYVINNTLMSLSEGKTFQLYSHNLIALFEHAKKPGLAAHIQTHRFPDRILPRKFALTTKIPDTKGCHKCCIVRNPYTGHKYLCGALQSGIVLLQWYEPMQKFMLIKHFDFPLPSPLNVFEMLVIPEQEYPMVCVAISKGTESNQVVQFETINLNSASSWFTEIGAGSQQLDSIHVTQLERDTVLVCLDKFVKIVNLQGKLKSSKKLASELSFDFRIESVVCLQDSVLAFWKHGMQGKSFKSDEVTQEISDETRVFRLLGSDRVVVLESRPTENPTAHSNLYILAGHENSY

As for `CCOc1cc(C(=O)N2CCC(N3CCN(C)CC3)CC2)ccc1Nc1ncc2c(n1)N(C1CCCC1)c1ccccc1C(=O)N2C` [Compound 26], the “KINOMEscan: BMPR2” value at panel of 442 kinases [1] worked out at 93. The “KINOMEscan: MAP4K5” value at panel of 442 kinases [2] amounted to 95.

Take `COc1cc(C(=O)N2CCC(N3CCN(C)CC3)CC2)ccc1Nc1ncc2c(n1)N1CCc3cccc(c31)C(=O)N2C` [Compound 24]: the “KINOMEscan: MAP4K5” value on panel of 442 kinases [2] was determined as 72.

For `COc1cc(C(=O)N2CCC(N3CCN(C)CC3)CC2)ccc1Nc1ncc2c(n1)N(C)c1ccccc1C(=O)N2C` [15 (LRRK2-IN-1)], the “KINOMEscan: BMPR2” value at panel of 442 kinases [1] came out at 100. The “KINOMEscan: MAP4K5” value at panel of 442 kinases [2] was found to be 100.

As to `COc1cc(C(=O)N2CCC(N3CCN(C)CC3)CC2)ccc1Nc1ncc2c(n1)N(C1CCCC1)c1ccccc1C(=O)N2C` [Compound 25, 11-cyclopentyl-2-((2-methoxy-4-(4-(4-methylpiperazin-1-yl)piperidine-1-carbonyl)phenyl)amino)-5-methyl-5H-benzo[e]pyrimido[5,4-b][1,4]diazepin-6(11H)-one], the “KINOMEscan: BMPR2” value on panel of 442 kinases [1] came out at 100. The “KINOMEscan: MAP4K5” value on panel of 442 kinases [2] is on record as 96.
